The NIST ThermoML archive (doi:10.1021/je1001945)
Numbers after ± are expanded uncertainties.

Details: Crystal; visual observation

## c1ccc2cc3ccccc3cc2c1 [anthracene]
  Normal melting temperature: 215 ± 1 °C
